This is an account of results in publication PMC10707724, “Dual Effects of 3-epi-betulin from Daphniphyllum glaucescens in Suppressing SARS-CoV-2-Induced Inflammation and Inhibiting Virus Entry” (International Journal of Molecular Sciences, 2023).

The test system of series [1] is SARS-CoV-2 virus spike binding to ACE2. The note with it: by computational screening; cited from earlier work.
Series [2] has as its system pro-inflammatory genes (IL1B, IL6) in differentiated THP-1 cells. The format is cell-based.
The test system of series [3] is SARS-CoV-2 replicon. The experiment in a line: microbe, parasite or virus in culture. The format is cell-based. To be noted: Severe acute respiratory syndrome coronavirus 2, HEK-293T, read-out: EC50, replication of SARS-CoV-2 replicon (luciferase activity). (A replicon is a self-replicating genome or part of one, used to study replication in cells.)
Series [4] deals with pro-inflammatory genes, IL6 and TNF, in Calu-3 cells. Type of series: cell-based.
Series [5] concerns SARS-CoV-2 (hCoV-19/Taiwan/NTU49/2020). Type of series: cell-based. The note with it: Calu-3, 10 μM for 24 h after infection.
Series [6] shares this test system. The experiment in a line: microbe, parasite or virus in culture. The format is cell-based.
Series [7] relates to wild-type SARS-CoV-2 pseudovirus SEMpv. Put plainly: microbe, parasite or virus in culture. Type of series: cell-based. To be noted: Severe acute respiratory syndrome-related coronavirus, BHK-ACE2, 48 h, read-out: EC50, pseudovirus entry.
Series [8] concerns wild-type SARS-CoV-2 pseudovirus Spv. The experiment in a line: microbe, parasite or virus in culture. The format is cell-based. The note with it: Severe acute respiratory syndrome-related coronavirus, BHK-ACE2, 48 h, read-out: EC50, pseudovirus entry.
For series [9], the system named is VSV-pseudovirus (Gpv). The format is cell-based.
The test system of series [10] is SARS-CoV-2 Alpha (B.1.1.7). Put plainly: microbe, parasite or virus in culture. The format is cell-based. The note with it: Severe acute respiratory syndrome coronavirus 2, Vero C1008, Alpha (B.1.1.7).
The subject of series [11] is SARS-CoV-2 Eplison (B.1.429). The experiment in a line: microbe, parasite or virus in culture. The format is cell-based. To be noted: Severe acute respiratory syndrome coronavirus 2, Vero C1008, Eplison (B.1.429).
The test system of series [12] is SARS-CoV-2 Gamma (P1). The experiment in a line: microbe, parasite or virus in culture. Type of series: cell-based. To be noted: Severe acute respiratory syndrome coronavirus 2, Vero C1008, Gamma (P1).
The test system of series [13] is SARS-CoV-2 Delta (B.1.617.2). Put plainly: microbe, parasite or virus in culture. The format is cell-based. The note with it: Severe acute respiratory syndrome coronavirus 2, Vero C1008, Delta (B.1.617.2).
For series [14], the system named is SARS-CoV-2 Omicron (BA.1). The experiment in a line: microbe, parasite or virus in culture. Type of series: cell-based. To be noted: Severe acute respiratory syndrome coronavirus 2, Vero C1008.
Series [15] concerns SARS-CoV-2 pseudoviruses. Type of series: cell-based. The note with it: pseudovirus pre-treated with compound 37 °C 1 h, BHK-ACE2 48 h, luciferase.
For series [16], the system named is BHK-ACE2 cells. The note with it: BHK-ACE2, 48 h, MTS.
Series [17] deals with spike protein. To be noted: cited from earlier work.
[18] abbreviates: compound given after pseudovirus infection, 16 h (time-of-addition study).

Take `C=C(C)[C@@H]1CC[C@]2(C(=O)O)CC[C@]3(C)[C@H](CC[C@@H]4[C@@]5(C)CC[C@H](O)C(C)(C)[C@@H]5CC[C@]43C)[C@@H]12` [Betulinic acid]: the “inhibition of spike binding to ACE2 through the RBD domain” value in series [1] is on record as “inhibit SARS-CoV-2 virus spike binding to ACE2”.

The term EC50 denotes the concentration at which the effect is half-maximal. Take `C=C(C)[C@@H]1CC[C@]2(CO)CC[C@]3(C)[C@H](CC[C@@H]4[C@@]5(C)CC[C@@H](O)C(C)(C)[C@@H]5CC[C@]43C)[C@@H]12` [Compound 5, 3-epi-Betulin]: in [2] (setting [18]), the “decrease in IL1B expression” value was found to be 69.5%. In addition, the “decrease in IL6 expression” value in series [2] (setting [18]) is 82.9%. The “expression of pro-inflammatory genes, pre-inoculation” value in series [2] (compound mixed with pseudovirus 1 h before infecting differentiated THP-1 cells) is “remained unchanged”. Further, in [2] (compound on differentiated THP-1 cells 1 h before pseudovirus infection), the “expression of pro-inflammatory genes, pre-treatment” value is listed as “remained unchanged”. Moreover, in series [2] (differentiated THP-1 infected with SEMpv, then compound for 16 h), the “IL1B RNA level decrease” value is 47.3%. For the same compound, the EC50 is 11.7 ± 0.4 µM in series [3]; < 20 µM in series [6] (Severe acute respiratory syndrome coronavirus 2, Calu-3 lung epithelial cells, read-out: EC50, SARS-CoV-2 infection); 14.6 µM in series [7]; 16.3 µM in series [8]; 10.3 µM in [10]; 12.9 µM in series [11]. Further, the EC50 in series [12] came out at 3.27 µM; in series [13] it was 3.09 µM; in series [14], 14.5 ± 3.9 µM. This compound displayed an IL6 expression decrease in [4] of 66.6%. In series [4], this compound came in with a TNF expression decrease of 46.0%. For the same compound, the “minus-stranded viral RNA decrease” value in series [5] is 51.7%. In addition, the “plus-stranded viral RNA reduction” value in series [5] is recorded as 73.8%. For the same compound, in [5] (RT-qPCR), the “culture supernatant viral load decrease” value stood at 61.4%. Also, the plaque formation decline in series [5] (plaque assay of supernatant) was 51.5%. Also, in series [6] (virus pre-incubated with 20 μM, Calu-3, 24 h), the “intracellular viral RNA decrease” value came out at 45.6%. Also, the “infectious virus titer decrease” value in series [6] (virus pre-incubated with 20 μM, Calu-3, 24 h, plaque assay) is given as 66.3%. In series [9], the “inhibitory activity against control VSV-pseudovirus” value is given as “no inhibitory activity”. Further, the “inhibitory activity for virus entry” value in series [15] is reported as “highest inhibitory activity”. In [16], the cytotoxicity entry is “no cytotoxicity”.

For `C=C(C)[C@@H]1CC[C@]2(CO)CC[C@]3(C)[C@H](CC[C@@H]4[C@@]5(C)CC[C@H](O)C(C)(C)[C@@H]5CC[C@]43C)[C@@H]12` [Compound 7, Betulin], the “ability to bind to the spike protein” value in series [17] was “ability to bind to the spike protein”.
